According to patent US20260083704A1, “LXR MODULATORS WITH BICYCLIC CORE MOIETY FOR TREATING DYSLIPIDEMIAS” (OrsoBio, Inc., priority 2022, published 2026):
Entries after “also recorded” stand apart in the source; their conditions may differ.

Assays:
[1] = tested on: steatotic human liver organoids (sHLO); experiment: Steatotic human liver organoid (sHLO) model; type: cell-based; conditions: 3 days
Experimental: Data in FIG. 2A are obtained from (Ouchi, Togo et al. 2019). Data are shown as mean±SD. n=4 wells per treatment.
Activity of Compound 21/3 was also evaluated in an induced pluripotent stem cell (iPSC)-derived human liver organoid (HLO) model established from human donors with different genetic backgrounds, including those with known genetic risk variants for NASH (Ouchi, Togo et al. 2019). The HLOs were exposed to high concentrations of lipid to induce a reproducible steatotic NASH phenotype (sHLO) with increased expression of DNL genes, including NR1H3, the gene that encodes LXRα (FIG. 2A) (Ouchi, Togo et al. 2019, Minniti, Pedrelli et al. 2020). […] Mutations in GCKR have been associated with increased circulating lipids, hepatic DNL, and diseases including diabetes and NASH (Fernandes Silva, Vangipurapu et al. 2019).

ABCA1/ABCG1 in PBMCs = experiment: Phase 1 study, MAD cohorts: expression of ABCA1/ABCG1 in PBMCs (peripheral RCT); type: in vivo, human; conditions: healthy subjects, predose and 4 h postdose on Day 14
Experimental: Lipid parameters, including apolipoprotein B (apoB), were evaluated by NMR LipoProfile® (Labcorp, Burlington, NC. Plasma ApoC3 and ANGPTL3 were evaluated by ELISA (360biolabs, Melbourne, Australia). Peripheral RCT (reverse cholesterol transport) were evaluated by assessing changes in expression of ABCA1/ABCG1 in PBMCs, predose and 4 hours postdose on Days 1 and 14 (Gnomix, Bedford Park, Australia).
In FIG. 14A to 14C, ApoC3 and ANGPTL3 measured 12 h postdose. RCT assessed predose and 4 h postdose on Day 14.

DIO mice = experiment: Diet-induced obese (DIO) mouse model; type: in vivo
Description: (§1) Data are shown as mean±SD. N=5-8 animals per group. *p≤0.05, **p≤0.01, ***p≤0.001, ****p≤0.0001 vs. vehicle, unless otherwise indicated; ^#p≤0.05 pioglitazone vs. vehicle Kruskal-Wallis (non-parametric One-Way ANOVA) test with Dunn's multiple comparisons test (FIG. 4A, FIG. 4B, FIG. 4D), repeated measures two-way ANOVA with Dunnett's multiple comparisons test (FIG. 4C), two-way ANOVA with Sidak's multiple comparisons test (FIG. 4E), Mann-Whitney test (FIG. 4F-G).
Data are shown as mean±SD. N=5-8 animals per group. *p≤0.05, **p≤0.01, ***p≤0.001, ****p≤0.0001 vs. vehicle, unless otherwise indicated; ^#p≤0.05 pioglitazone vs. vehicle repeated measures two-way ANOVA with Dunnett's multiple comparisons test (FIG. 5A, FIG. 5C, FIG. 5D), Kruskal-Wallis (non-parametric one-way ANOVA) test with Dunn's multiple comparisons test (FIG. 5B, FIG. 5E).
The efficacy of Compound 21/3 was evaluated in three dysmetabolic rodent models including DIO mice, HFD-fed ZDF rats, and HFD-fed SD rats (FIG. 4 and FIG. 5). Briefly, DIO mice were fed a HFD (60% kcal from fat) for 14 weeks and treated with Compound 21/3 (0.3 and 1 mg/kg once daily by oral gavage) for three weeks, while ZDF and SD rats were fed HFD for two weeks prior to treatment with Compound 21/3 (0.1 and 1 mg/kg once daily by oral gavage) for two or three weeks, respectively.

[2] = tested on: human primary Upcyte hepatocytes; experiment: Lipid accumulation in human primary Upcyte hepatocytes (Bodipy staining); type: cell-based; conditions: Hepatocyte, 120 h, glucose 25 mM and palmitate, 5 days
Experimental: Inhibition of LXR activity in hepatocytes is hypothesized to reduce intracellular TG accumulation via inhibition of DNL. The effects of Compound 21/3 on lipid accumulation in human primary Upcyte® hepatocytes were evaluated. Briefly, human primary Upcyte hepatocytes were cultivated in media containing high concentrations of glucose (25 mM) and palmitate ([…]) for 5 days in the presence or absence of Compound 21/3, and intracellular lipids were measured by Bodipy™ staining. […] Data are shown as mean±SD. n=2 wells per treatment; N=8 experiments.

HFD-fed (DIO) mice = experiment: Intestinal lipid absorption (3H-triolein tracer) in HFD-fed mice; type: in vivo; conditions: 5 mg/kg oral gavage
Description: as §1
In addition to the effects of Compound 21/3 on hepatic DNL, the observed reductions in plasma TG in these models may be mediated by reduced intestinal TG absorption, as well as increased clearance of TG-containing lipoproteins from the circulation. […] Further, LXR inhibition with Compound pre-6/3 reduced intestinal lipid absorption as measured by reduced uptake of ^3H-labelled triolein tracer in HFD-fed mice (FIG. 4E). Additionally, Compound 21/3 reduced hepatic expression and plasma levels of ANGPTL3, an inhibitor of LPL, the predominant enzyme involved in the clearance of TG-rich lipoproteins from the circulation (FIG. 4F). Loss-of-function variants in ANGPTL3 are associated with reduced serum lipids and a lower risk of CAD (Dewey, Gusarova et al. 2017). […]

| Structure (SMILES) | intracellular lipid content ([1]; patient-derived sHLOs) | expression of DNL-associated genes ([1]; sHLOs from GCKR wild-type (CC) or mutant (TT) carriers) | peripheral RCT: expression of LXR target genes in PBMCs incl. ABCA1/ABCG1 (ABCA1/ABCG1 in PBMCs) | expression of Hmgcr and Cyp7a1 in the liver and Abca1, Abcg5, Abcg8 in the intestine (DIO mice; DIO mice) | expression of cholesterol efflux transporters Abca1 and Abcg1 in the buffy coat (DIO mice; DIO mice) | plasma TG levels (DIO mice; DIO mice) | liver expression of DNL genes (Srebp1c, Fasn, Acaca, Scd1) (DIO mice; DIO mice, 0.3 and 1 mg/kg once daily oral, three weeks) | maximal reduction of liver TG versus vehicle (DIO mice; DIO mice, p≤0.001) | reduction of plasma total cholesterol (TC) at end of treatment compared with vehicle (DIO mice; DIO mice, p≤0.05) | intestinal Srebp1c expression (DIO mice; DIO mouse, ileum) | liver TC (DIO mice; dysmetabolic rodent models (FIG. 5B), particularly higher dose groups) | liver biochemistry tests, plasma ALT or AST, compared with vehicle (DIO mice; dysmetabolic rodent models (FIG. 5C-D)) | EC50 [2] | intestinal lipid absorption (uptake of 3H-labelled triolein tracer) (HFD-fed (DIO) mice) |
| --- | --- | --- | --- | --- | --- | --- | --- | --- | --- | --- | --- | --- | --- | --- |
| N#Cc1cccc(C#N)c1-c1c(-c2cccc(-c3ccc(C(=O)NCC(=O)O)cc3Cl)c2)n(S(=O)(=O)c2ccc(C(F)F)cc2)c2ccc(F)cc12 [Compound 21/3] | dose-dependently reduced | suppressed | does not impact; also recorded: did not impact | dose-dependently reduced | did not alter | reduced | dose-dependently reduced | 65% | 49% | dose-dependently reduced | statistically significant increase | not associated with substantial elevations | 289 ± 34 nM | – |
| N#Cc1cccc(C#N)c1-c1c(-c2cccc(-c3ccc(C(=O)O)cc3Cl)c2)n(S(=O)(=O)c2ccc(C(F)F)cc2)c2ccc(F)cc12 [pre-6/3] | – | – | – | – | – | – | – | – | – | – | – | – | – | reduced |
